Results published in PMC3130785, “Small Compound 6-O-Angeloylplenolin Induces Mitotic Arrest and Exhibits Therapeutic Potentials in Multiple Myeloma” (PLoS ONE, 2011).
Read-outs that look alike come from different tables or passages of the source.

Legend:
MM.1S cells = assay: Cell cycle distribution by flow cytometry; type: cell-based, human; details: 5 to 10 µM for 48 h
Description: (§1) MM cells were synchronized to G1/S boundary by a double-thymidine block. Briefly, cells were treated with 2 mM thymidine (Sigma-Aldrich) for 16 h, released into fresh medium for 9 h and subjected again to thymidine for another 16 h and then exposed to 6-OAP for indicated time points. Cells were harvested, fixed with 70% cold ethanol, incubated with RNase, and stained with propidium iodide (PI) (Sigma-Aldrich). Cell cycle distribution was analyzed by flow cytometry and CellQuest software (Becton Dickson).
(§2) Figure 2 6-OAP induces mitotic arrest in MM cells. (A) U266 cells were treated with 6-OAP at 7.5 µM for 0, 24, 48 h and imaged by Leica DMI 400B microscope. (B) U266 cells were treated with 6-OAP at indicated concentrations for 48 h. Cell cycle distribution was determined by flow cytometry. (C) MM.1S cells were treated with 5 µM 6-OAP for 48 h. Cell cycle distribution was determined by flow cytometry. (D) U266 cells were treated with 6-OAP at 5 to 7.5 µM for 24 h (left panel) or at 7.5 µM for 12 to 24 h (right panel). For immunofluorescence analysis of microtubules, cells was stained with an anti-α-tubulin antibody to visualize microtubules (green) and DAPI to counter stained DNA (blue) and observed by confocal microscopy. (E) Indicated cells were treated with 6-OAP at indicated concentration for 24 h, lysed, and Western blotting was performed using antibodies indicated. […]

U266 cells = assay: Cell cycle distribution by flow cytometry; type: cell-based, human; details: 5 to 10 µM for 48 h
Description: as §1, §2

[1] = Pharmacokinetic study (LC-MS/MS plasma concentration); type: in vivo, Sprague-Dawley rats; details: rat; for MRT last: read-out: MRT0-t
Description: Eight Sprague–Dawley rats (220–250 g, female) were bought from the Laboratory Animal Center of Nanfang Medical University (Guangzhou, China), and maintained and monitored in a specific pathogen-free environment. They were fasted overnight before the experiments. All rat studies were conducted according to protocols approved by the Animal Ethics Committee of our institute. Four rats were administered with 6-OAP (30 mg/kg) by intravenous injection, and the other four rats were inoculated with 6-OAP (40 mg/kg) by intraperitoneal injection. Blood samples of 100–200 µL were collected from the orbit at the time points indicated. The plasma concentrations of 6-OAP were determined by LC-MS/MS. The pharmacokinetic parameters were obtained from the pharmacokinetic software DAS 2.0 (Drug and Statistics Version 2.0).

[2] = female, Sprague-Dawley, in vivo, ip (40 mg/kg)
[3] = female, Sprague-Dawley, in vivo, iv (30 mg/kg)

SMILES: CC=C(C)C(=O)OC1C2C(CC(C)C3C=CC(=O)C31C)OC(=O)C2C (stereo not shown) [6-OAP, 6-O-angeloylplenolin]
- cells in G2/M phase (MM.1S cells): accumulation
- cells in G2/M phase (U266 cells): accumulation
- AUC(0-t) [1, 2]: 18000 ± 2700 ng·h/mL
- Cmax [1, 2]: 3870 ± 1120 ng/mL
- half-life [1, 2]: 4.68 ± 0.463 h
- bioavailability ([1]; female, Sprague-Dawley, in vivo, ip (40 mg/kg), read-out: BA (bioavailability)): 92.5%
- MRT last [1, 2]: 5.75 ± 1.03 h
- AUC(0-t) [1, 3]: 14700 ± 1020 ng·h/mL
- Cmax [1, 3]: 16400 ± 1940 ng/mL
- half-life [1, 3]: 1.76 ± 0.453 h
- clearance ([1]; female, Sprague-Dawley, in vivo, iv (30 mg/kg), read-out: CLz (converted)): 34.1 mL/min/kg
- MRT last [1, 3]: 1.44 ± 0.448 h
- Tmax ([1]; female, Sprague-Dawley, in vivo, ip, 40 mg/kg, ip 40 mg/kg, read-out: time of peak concentration (converted)): 0.813 h
- Tmax ([1]; female, Sprague-Dawley, in vivo, ip, 40 mg/kg, ip (40 mg/kg), read-out: Tmax): 0.813 ± 0.08 h
- Tmax ([1]; female, Sprague-Dawley, in vivo, iv, 30 mg/kg, iv 30 mg/kg, read-out: time of peak concentration (converted)): 0.033 h
- Tmax ([1]; female, Sprague-Dawley, in vivo, iv, 30 mg/kg, iv (30 mg/kg), read-out: Tmax): 0.033 h
- CLz ([1]; ip 40 mg/kg): 37.33 ± 5.58 mL/min/kg
- peak plasma concentration ([1]; ip 40 mg/kg): 11.191 ± 3.225 µM
- peak plasma concentration ([1]; iv 30 mg/kg): 47.506 ± 5.595 µM
